Experimental data taken from PubChem BioAssay AID248 (DTP/NCI, 2004).
Where “and” joins values, the source holds several entries; their conditions need not be identical. Equal entries are not always repeated. Toxic doses and inconclusive results are not listed. No stated cut-off is given here; in the data, active means T/C of 150% or more; inactive means T/C below 125%.

Test system: L1210 leukemia ip in BDF1 mice, survival T/C
Assay: NCI In Vivo Anticancer Drug Screen. Data for tumor model L1210 Leukemia (intraperitoneal) in B6D2F1 (BDF1) mice
Conditions: endpoint: mean survival time, higher = longer survival
Outline: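 Tumor cells were implanted, animals were treated, and survival was followed. The result divides the treated measurement by the vehicle-control measurement.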

[1] = dose: 100.0 mg/kg/injection, schedule: Q01DX009 (ip), vehicle: saline
[2] = dose: 100.0 mg/kg/injection, schedule: Q04DX003 (ip), vehicle: saline
[3] = dose: 200.0 mg/kg/injection, schedule: Q01DX009 (ip), vehicle: saline
[4] = dose: 200.0 mg/kg/injection, schedule: Q04DX003 (ip), vehicle: saline
[5] = dose: 100.0 mg/kg/injection, schedule: Q04DX003 (ip), vehicle: Klucel (hydroxypropylcellulose) (HPC)
[6] = dose: 200.0 mg/kg/injection, schedule: Q04DX003 (ip), vehicle: Klucel (hydroxypropylcellulose) (HPC)
[7] = dose: 400.0 mg/kg/injection, schedule: Q04DX003 (ip), vehicle: Klucel (hydroxypropylcellulose) (HPC)
[8] = dose: 100.0 mg/kg/injection, schedule: Q04DX002 (ip), vehicle: Klucel (hydroxypropylcellulose) (HPC)
[9] = dose: 200.0 mg/kg/injection, schedule: Q04DX002 (ip), vehicle: Klucel (hydroxypropylcellulose) (HPC)
[10] = dose: 400.0 mg/kg/injection, schedule: Q04DX002 (ip), vehicle: Klucel (hydroxypropylcellulose) (HPC)
[11] = dose: 100.0 mg/kg/injection, schedule: Q01DX009 (ip), vehicle: Klucel (hydroxypropylcellulose) (HPC)
[12] = dose: 200.0 mg/kg/injection, schedule: Q01DX009 (ip), vehicle: Klucel (hydroxypropylcellulose) (HPC)
[13] = dose: 100.0 mg/kg/injection, schedule: Q01DX009 (ip), vehicle: saline with Tween-80
[14] = dose: 200.0 mg/kg/injection, schedule: Q01DX009 (ip), vehicle: saline with Tween-80
[15] = dose: 400.0 mg/kg/injection, schedule: Q01DX009 (ip), vehicle: saline with Tween-80
[16] = dose: 400.0 mg/kg/injection, schedule: Q01DX009 (ip), vehicle: Klucel (hydroxypropylcellulose) (HPC)

Measured: T/C

OC(Cc1[nH]c2ccccc2c1C(O)(C(F)(F)F)C(F)(F)F)(C(F)(F)F)C(F)(F)F
inactive: dose: 100.0 mg/kg/injection, schedule: Q04DX003 (ip), vehicle: other 109 % of control | dose: 200.0 mg/kg/injection, schedule: Q04DX003 (ip), vehicle: other 109 % of control | dose: 400.0 mg/kg/injection, schedule: Q04DX003 (ip), vehicle: other 98 % of control

Cc1cc(Cl)ccc1NC(=O)Nc1c(Oc2ccc(Cl)cc2)ccc(Cl)c1S(=O)(=O)O
inactive: dose: 50.0 mg/kg/injection, schedule: Q01DX009 (ip), vehicle: saline 104 % of control | dose: 50.0 mg/kg/injection, schedule: Q04DX003 (ip), vehicle: saline 95 % of control | [1] 104 % of control | [2] 97 % of control | [3] 100 % of control | [4] 103 % of control

O=C(CCl)Nc1cccc(S(=O)(=O)F)c1
inactive: dose: 12.5 mg/kg/injection, schedule: Q01DX009 (ip), vehicle: carboxymethylcellulose (CMC) 93 % of control | dose: 25.0 mg/kg/injection, schedule: Q01DX009 (ip), vehicle: carboxymethylcellulose (CMC) 88 % of control | dose: 50.0 mg/kg/injection, schedule: Q01DX009 (ip), vehicle: carboxymethylcellulose (CMC) 87 % of control | dose: 100.0 mg/kg/injection, schedule: Q04DX003 (ip), vehicle: carboxymethylcellulose (CMC) 103 % of control

CC(C)=NOC(=O)NCCCl
inactive: [5] 103 % of control | [6] 101 % of control | [7] 97 % of control

OC1CC2(c3ccccc3)OC1(c1ccccc1)c1ccccc12 (stereo not drawn)
inactive: [8] 112 % of control | [9] 101 % of control | [10] 115 % of control

O=C(O)CCCCC(=O)c1cc(O)ccc1O
inactive: [5] 102 % of control | [6] 104 % of control | [7] 102 % of control

C[N+](C)(C)CC(=O)[O-]
inactive: [1] 108 % of control | [2] 103 % of control | [3] 91 % of control | [4] 94 % of control

CCOC(=O)/C(C#N)=C\C=C\c1ccccc1
inactive: [11] 92 % of control | [5] 96 % of control | [12] 98 % of control | [6] 98 % of control | [7] 102 % of control

COc1ccc(N2CCN(c3c4c(nc5ccccc35)CCCCC4)CC2)cc1
inactive: dose: 100.0 mg/kg/injection, schedule: Q01DX001 (ip), vehicle: saline 95 % of control | dose: 200.0 mg/kg/injection, schedule: Q01DX001 (ip), vehicle: saline 106 % of control | dose: 400.0 mg/kg/injection, schedule: Q01DX001 (ip), vehicle: saline 101 % of control

CCC1(c2ccccc2)NC(=O)NC1=O (stereo not drawn)
inactive: [13] 102 % of control | [14] 100 % of control

Nc1ccc(CCc2nc(N)nc(N)c2-c2ccc(Cl)cc2)cc1
inactive: [5] 106 % of control | [6] 104 % of control | [7] 101 % of control

OC1CCC(O)CC1 (stereo not drawn)
inactive: [2] 100 % of control | [4] 100 % of control | dose: 400.0 mg/kg/injection, schedule: Q04DX003 (ip), vehicle: saline 115 % of control

CC(=O)Nc1ccc(Cl)c(F)c1Cl
inactive: [8] 104 % of control | [9] 93 % of control | [10] 107 % of control

O=C(NC(=S)Nc1cccc2c(O)cccc12)c1ccc(Cl)cc1Cl
inactive: dose: 100.0 mg/kg/injection, schedule: Q01DX001 (ip), vehicle: saline with Tween-80 105 % of control | [13] 98 % of control and 90 % of control | dose: 100.0 mg/kg/injection, schedule: Q04DX002 (ip), vehicle: saline with Tween-80 95 % of control and 98 % of control | dose: 100.0 mg/kg/injection, schedule: Q04DX003 (ip), vehicle: saline with Tween-80 103 % of control | dose: 200.0 mg/kg/injection, schedule: Q01DX001 (ip), vehicle: saline with Tween-80 103 % of control | [14] 97 % of control and 117 % of control | dose: 200.0 mg/kg/injection, schedule: Q04DX002 (ip), vehicle: saline with Tween-80 101 % of control and 106 % of control | dose: 200.0 mg/kg/injection, schedule: Q04DX003 (ip), vehicle: saline with Tween-80 92 % of control | dose: 400.0 mg/kg/injection, schedule: Q01DX001 (ip), vehicle: saline with Tween-80 106 % of control | [15] 94 % of control and 98 % of control | dose: 400.0 mg/kg/injection, schedule: Q04DX002 (ip), vehicle: saline with Tween-80 95 % of control and 90 % of control | dose: 400.0 mg/kg/injection, schedule: Q04DX003 (ip), vehicle: saline with Tween-80 94 % of control

O=C/C(=C/c1ccccc1)c1ccccc1
inactive: [11] 98 % of control | [5] 107 % of control | [12] 101 % of control | [6] 98 % of control | [16] 95 % of control | [7] 102 % of control

CN(C)CCCN=Cc1ccccc1O.CN(C)CCCN=Cc1ccccc1O.[Ni+2]
inactive: dose: 6.25 mg/kg/injection, schedule: Q04DX003 (ip), vehicle: saline with Tween-80 100 % of control | dose: 12.5 mg/kg/injection, schedule: Q04DX003 (ip), vehicle: saline with Tween-80 94 % of control | dose: 25.0 mg/kg/injection, schedule: Q04DX003 (ip), vehicle: saline with Tween-80 101 % of control

O=C(NCCCl)NC1CCCCC1O (stereo not drawn)
inactive: dose: 100.0 mg/kg/injection, schedule: Q04DX002 (ip), vehicle: saline 98 % of control | dose: 200.0 mg/kg/injection, schedule: Q04DX002 (ip), vehicle: saline 91 % of control | dose: 400.0 mg/kg/injection, schedule: Q04DX002 (ip), vehicle: saline 102 % of control

OC/C(=C/c1ccccc1)c1ccccc1
inactive: dose: 50.0 mg/kg/injection, schedule: Q01DX009 (ip), vehicle: Klucel (hydroxypropylcellulose) (HPC) 98 % of control | dose: 75.0 mg/kg/injection, schedule: Q04DX003 (ip), vehicle: Klucel (hydroxypropylcellulose) (HPC) 100 % of control | [11] 91 % of control | dose: 150.0 mg/kg/injection, schedule: Q04DX003 (ip), vehicle: Klucel (hydroxypropylcellulose) (HPC) 98 % of control | [12] 93 % of control | dose: 300.0 mg/kg/injection, schedule: Q04DX003 (ip), vehicle: Klucel (hydroxypropylcellulose) (HPC) 96 % of control

CCOC(=O)C(Cc1ccccc1Cl)(Cc1ccccc1Cl)c1ccccc1
inactive: [13] 92 % of control | [14] 90 % of control | [15] 90 % of control

O=CNO
inactive: dose: 50.0 mg/kg/injection, schedule: Q01DX001 (ip), vehicle: water 100 % of control | dose: 100.0 mg/kg/injection, schedule: Q01DX001 (ip), vehicle: water 110 % of control | dose: 200.0 mg/kg/injection, schedule: Q01DX001 (ip), vehicle: water 96 % of control | dose: 400.0 mg/kg/injection, schedule: Q01DX001 (ip), vehicle: water 107 % of control

CCCCCCC(=O)C(CCCC)(C(=O)OCC)C(=O)OCC
inactive: [11] 101 % of control | [12] 104 % of control | [16] 101 % of control

Cn1cc(C(=Nc2ccccc2)Nc2ccccc2)c2ccccc21
inactive: dose: 75.0 mg/kg/injection, schedule: Q01DX001 (ip), vehicle: saline 94 % of control | dose: 150.0 mg/kg/injection, schedule: Q01DX001 (ip), vehicle: saline 94 % of control | dose: 300.0 mg/kg/injection, schedule: Q01DX001 (ip), vehicle: saline 89 % of control
